Consider 24 molecules from patent publication US20220204498A1, “PYRIDO-PYRIMIDINYL COMPOUNDS AND METHODS OF USE” (Genentech, Inc., priority 2019, published 2022).

The structures appear in SMILES notation. Structures can show the parent of a compound that is named as a salt.

For orientation: IC50 means the concentration at which inhibition is half-maximal.

T1 sequence (O75460 547-977 D688N): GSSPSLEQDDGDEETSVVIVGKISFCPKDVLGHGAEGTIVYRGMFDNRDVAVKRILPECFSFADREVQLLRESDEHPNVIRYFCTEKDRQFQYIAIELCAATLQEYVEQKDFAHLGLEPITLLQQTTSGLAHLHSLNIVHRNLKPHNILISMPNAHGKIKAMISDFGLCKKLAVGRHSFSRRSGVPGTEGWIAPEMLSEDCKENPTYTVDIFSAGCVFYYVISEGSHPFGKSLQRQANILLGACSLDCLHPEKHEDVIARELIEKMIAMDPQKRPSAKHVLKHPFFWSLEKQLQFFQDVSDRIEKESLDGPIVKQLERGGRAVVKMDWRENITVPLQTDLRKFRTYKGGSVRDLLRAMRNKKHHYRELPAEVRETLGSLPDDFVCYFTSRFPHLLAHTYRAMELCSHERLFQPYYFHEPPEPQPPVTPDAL

The experiment addresses T1, IRE1α (Homo sapiens, UniProt O75460, D688N).
T1 construct: containing the kinase and RNase domains (KR, AA G547-1L977, D688N); made in house; host or cells: Sf9 insect cells
Description: IRE1α TR-FRET competition binding assay (IRE1α HTRF). Particulars: His-tagged IRE1α kinase dead construct (KR, D688N) 0.25 nM; Alexa fluor 647-labeled ATP competitive probe 2 nM; one hour at room temperature; read-out: IRE1α (alpha) HTRF (IC50). On the procedure:
Example 59. IRE1α TR-FRET Competition Binding Assay
To determine the affinity of compound binding to the kinase domain of IRE1α, a time-resolved fluorescence resonance energy transfer (TR-FRET) competition assay was used.
A His-tagged IRE1α kinase dead construct containing the kinase and RNase domains (KR, AA G547-1L977, D688N) was expressed in Sf9 insect cells. The purified protein (final concentration 0.25 nM) was pre-incubated with anti-His Europium labeled antibody (Life Technologies PV5596, final concentration 2 nM) for one hour at 4° C. in TR-FRET Assay Buffer (50 mM HEPES, pH 7.5, 10 mM MgCl2, 0.083 mM Brij 35, 1 mM DTT, and 0.1% bovine gamma globulin) prior to addition to test compounds. An Alexa fluor 647-labeled probe based on an ATP competitive inhibitor was added to a final concentration of 2 nM. Reactions were carried out for one hour at room temperature in a final volume of 20 μL in 384 well white ProxiPlates (Perkin Elmer 6008289). Binding of the probe to the IRE1α protein was detected in an Envision instrument (PerkinElmer) equipped with a TRF laser option and a LANCE/Delfia Dual/Bias D400/D630 mirror (Ex 347 nm, 1st Em 665 nm, 2nd Em 615 nm).
`CCc1cc(-c2ccc(NS(=O)(=O)Cc3ccccc3)c(F)c2)nc2cnc(N[C@@H]3CNC[C@@H](F)C3)nc12` [Compound 122, N-(4-(8-Ethyl-2-(((3S,5S)-5-fluoropiperidin-3-yl)amino)pyrido[3,2-d]pyrimidin-6-yl)-2-fluorophenyl)-1-phenylmethanesulfonamide formate]: the IC50 was 0.2 nM.

Take `O=S(=O)(Cc1ccccc1)Nc1ccc(-c2cc3cnc(N[C@@H]4CNC[C@@H](F)C4)nc3cn2)cc1F` [Compound 101, N-(2-Fluoro-4-(2-(((3S,5S)-5-fluoropiperidin-3-yl)amino)pyrido[3,4-d]pyrimidin-6-yl)phenyl)-1-phenylmethanesulfonamide]: the IC50 amounted to 3 nM.

Turning to `Cc1cc(-c2ccc(NS(=O)(=O)Cc3ccc(F)cc3)c(F)c2)nc2cnc(N[C@H]3CC[C@H](N(C)C)CC3)nc12` [Compound 129, N-(4-(2-(((1,4-trans)-4-(Dimethylamino)cyclohexyl)amino)-8-methylpyrido[3,2-d]pyrimidin-6-yl)-2-fluorophenyl)-1-(4-fluorophenyl)methanesulfonamide], the IC50 is 0.08 nM.

Regarding `CCc1cc(-c2ccc(NS(=O)(=O)c3ccccc3Cl)nc2C)nc2cnc(N[C@H]3CC[C@H](N(C)C)CC3)nc12` [Compound 134, 2-Chloro-N-(5-(2-(((1,4-trans)-4-(dimethylamino)cyclohexyl)amino)-8-ethylpyrido[3,2-d]pyrimidin-6-yl)-6-methylpyridin-2-yl)benzenesulfonamide], the IC50 was 0.33 nM.

As to `O=S(=O)(Cc1ccccc1)Nc1c(F)cc(-c2cc3cnc(N[C@@H]4CNC[C@@H](F)C4)nc3nc2OC2CCOC2)c(F)c1F` (single isomer, unassigned) [Compound 104], the IC50 was 0.66 nM.

As for `CCc1cc(-c2ccc(NS(=O)(=O)c3ccccc3Cl)nc2OC)nc2cnc(N[C@H]3CC[C@H](N(C)C)CC3)nc12` [Compound 141, 2-Chloro-N-(5-(2-(((1,4-trans)-4-(dimethylamino)cyclohexyl)amino)-8-ethylpyrido[3,2-d]pyrimidin-6-yl)-6-methoxypyridin-2-yl)benzenesulfonamide], the IC50 turned out to be 0.43 nM.

With `O=S(=O)(Cc1ccccc1)Nc1c(F)cc(-c2cc3cnc(N[C@@H]4CNC[C@@H](F)C4)nc3nc2OC2CCOC2)c(F)c1F` (single isomer, unassigned) [Compound 105], the IC50 was 0.39 nM.

As to `Cc1cc(-c2cc(F)c(NS(=O)(=O)Cc3ccccc3)c(F)c2)nc2cnc(N[C@@H]3CNC[C@@H](F)C3)nc12` [Compound 108, N-(2,6-Difluoro-4-(2-(((3S,5S)-5-fluoropiperidin-3-yl)amino)-8-methylpyrido[3,2-d]pyrimidin-6-yl)phenyl)-1-phenylmethanesulfonamide], the half-maximal inhibitory concentration (IC50) came to 0.2 nM.

Consider `Cc1cc(-c2ccc(NS(=O)(=O)Cc3ccc(F)cc3)c(F)c2)nc2cnc(N[C@@H]3CNC[C@@H](F)C3)nc12` [Compound 121, N-(2-Fluoro-4-(2-(((3S,5S)-5-fluoropiperidin-3-yl)amino)-8-methylpyrido[3,2-d]pyrimidin-6-yl)phenyl)-1-(4-fluorophenyl)methanesulfonamide formate], for which the IC50 turned out to be 0.27 nM.

Take `Cc1cc(-c2ccc(NS(=O)(=O)c3cnccc3C(F)(F)F)c(F)c2)nc2cnc(N[C@H]3CC[C@H](N(C)C)CC3)nc12` [Compound 156, N-[4-[2-[[(1,4-trans)-4-(Dimethylamino)cyclohexyl]amino]-8-methyl-pyrido[3,2-d]pyrimidin-6-yl]-2-fluoro-phenyl]-4-(trifluoromethyl)pyridine-3-sulfonamide]: the IC50 is 0.18 nM.

For `Cc1cc(-c2ccc(NS(=O)(=O)CCC(C)(F)F)c(F)c2)nc2cnc(N[C@H]3CC[C@H](N(C)C)CC3)nc12` [Compound 113, N-(4-(2-(((1,4-trans)-4-(Dimethylamino)cyclohexyl)amino)-8-methylpyrido[3,2-d]pyrimidin-6-yl)-2-fluorophenyl)-3,3-difluorobutane-1-sulfonamide formate], the IC50 was 0.17 nM.

Regarding `Cc1cc(-c2ccc3c(c2)CCS(=O)(=O)N3)nc2cnc(N[C@H]3CC[C@H](N(C)C)CC3)nc12` [Compound 151, 6-(2-(((1,4-trans)-4-(Dimethylamino)cyclohexyl)amino)-8-methylpyrido[3,2-d]pyrimidin-6-yl)-3,4-dihydro-1H-benzo[c][1,2]thiazine 2,2-dioxide], the IC50 worked out at 39 nM.

For the molecule `COCc1cc(-c2ccc(NS(=O)(=O)Cc3ccc(F)cc3)c(F)c2)nc2cnc(N[C@H]3CC[C@H](N(C)C)CC3)nc12` [Compound 138, N-(4-(2-(((1,4-trans)-4-(Dimethylamino)cyclohexyl)amino)-8-(methoxymethyl)pyrido[3,2-d]pyrimidin-6-yl)-2-fluorophenyl)-1-(4-fluorophenyl)methanesulfonamide], the IC50 was 0.21 nM.

Turning to `Cc1cc(-c2ccc(NS(=O)(=O)c3cccnc3C(F)(F)F)c(F)c2)nc2cnc(N[C@H]3CC[C@H](N(C)C)CC3)nc12` [Compound 157, N-[4-[2-[[(1,4-trans)-4-(Dimethylamino)cyclohexyl]amino]-8-methyl-pyrido[3,2-d]pyrimidin-6-yl]-2-fluoro-phenyl]-2-(trifluoromethyl)pyridine-3-sulfonamide], the concentration for half-maximal inhibition (IC50) worked out at 0.23 nM.

As to `Cc1cc(NS(=O)(=O)c2ccccc2Cl)ncc1-c1cc(C)c2nc(N[C@H]3CC[C@H](N(C)C)CC3)ncc2n1` [Compound 149, 2-Chloro-N-(5-(2-(((1,4-trans)-4-(dimethylamino)cyclohexyl)amino)-8-methylpyrido[3,2-d]pyrimidin-6-yl)-4-methylpyridin-2-yl)benzenesulfonamide], the IC50 came out at 3.3 nM.

On to `Cc1cc(-c2ccc(NS(=O)(=O)Cc3ccccc3)c(F)c2)nc2cnc(N[C@@H]3CNC[C@@H](F)C3)nc12` [Compound 106, N-(2-Fluoro-4-(2-(((3S,5S)-5-fluoropiperidin-3-yl)amino)-8-methylpyrido[3,2-d]pyrimidin-6-yl)phenyl)-1-phenylmethanesulfonamide], for which the IC50 was 0.3 nM.

As to `O=S(=O)(Cc1ccccc1)Nc1ccc(-c2cnc3nc(N[C@@H]4CNC[C@@H](F)C4)ncc3c2)cc1F` [Compound 109, N-(2-Fluoro-4-(2-(((3S,5S)-5-fluoropiperidin-3-yl)amino)pyrido[2,3-d]pyrimidin-6-yl)phenyl)-1-phenylmethanesulfonamide], the IC50 stood at 5.7 nM.

`CC(Oc1nc2nc(N[C@@H]3CNC[C@@H](F)C3)ncc2cc1-c1ccc(NS(=O)(=O)Cc2ccccc2)c(F)c1F)C(F)F` (single isomer, unassigned) [Compound 103]: the IC50 was 1.1 nM.

For the molecule `Cc1cc(-c2ccc(NS(=O)(=O)c3ccccn3)c(F)c2)nc2cnc(N[C@H]3CC[C@H](N(C)C)CC3)nc12` [Compound 158, N-(4-(2-(((1,4-trans)-4-(Dimethylamino)cyclohexyl)amino)-8-methylpyrido[3,2-d]pyrimidin-6-yl)-2-fluorophenyl)pyridine-2-sulfonamide], the IC50 was determined as 0.2 nM.

As for `CN(C)[C@H]1CC[C@H](Nc2ncc3nc(-c4ccc(NS(=O)(=O)Cc5ccc(F)cc5)c(F)c4)cc(C(F)F)c3n2)CC1` [Compound 131, N-1,4-trans-[4-[8-(Difluoromethyl)-2-[[4-(dimethylamino)cyclohexyl]amino]pyrido[3,2-d]pyrimidin-6-yl]-2-fluoro-phenyl]-1-(4-fluorophenyl)methanesulfonamide], the IC50 came out at 0.15 nM.

Turning to `O=S(=O)(Cc1ccccc1)Nc1ccc(-c2ccc3nc(N[C@@H]4CNC[C@@H](F)C4)ncc3n2)cc1F` [Compound 100, N-(2-Fluoro-4-(2-(((3S,5S)-5-fluoropiperidin-3-yl)amino)pyrido[3,2-d]pyrimidin-6-yl)phenyl)-1-phenylmethanesulfonamide], the IC50 was determined as 0.89 nM.

As to `Cc1cc(-c2ccc(NS(=O)(=O)c3cccnc3)c(F)c2)nc2cnc(N[C@H]3CC[C@H](N(C)C)CC3)nc12` [Compound 154, N-[4-[2-[[(1,4-trans)-4-(Dimethylamino)cyclohexyl]amino]-8-methyl-pyrido[3,2-d]pyrimidin-6-yl]-2-fluoro-phenyl]pyridine-3-sulfonamide], the IC50 worked out at 0.21 nM.

As to `CCc1cc(-c2ccc(NS(=O)(=O)c3ccccc3C(F)F)nc2C)nc2cnc(N[C@H]3CC[C@H](N(C)C)CC3)nc12` [Compound 147, 2-(Difluoromethyl)-N-(5-(2-(((1,4-trans)-4-(dimethylamino)cyclohexyl)amino)-8-ethylpyrido[3,2-d]pyrimidin-6-yl)-6-methylpyridin-2-yl)benzenesulfonamide], the IC50 came out at 0.28 nM.

Regarding `CCc1cc(-c2ccc(NS(=O)(=O)Cc3ccc(S(C)(=O)=O)cc3)c(F)c2)nc2cnc(N[C@H]3CC[C@H](N(C)C)CC3)nc12` [Compound 152, N-(4-(2-(((1,4-trans)-4-(Dimethylamino)cyclohexyl)amino)-8-ethylpyrido[3,2-d]pyrimidin-6-yl)-2-fluorophenyl)-1-(4-(methylsulfonyl)phenyl)methanesulfonamide], the IC50 was 0.12 nM.
